SMILES strings stand for the structures. Values joined by “and” are separate entries in the source; they are usually repeats but may differ in a detail not shown here. Equal values may be shown once. Read-outs that look alike come from different tables or passages of the source.

For orientation: IC50 means the point on the concentration scale where inhibition reaches its midpoint. In general, EC50 refers to the concentration at which the effect is half-maximal. Usually melting point stands for the temperature, or range, at which the solid turns liquid. By inhibition is commonly meant the relative decrease from the control value, in per cent.

The target in data set [1] is HIV-1 reverse transcriptase (RT)-associated RNase H (Human immunodeficiency virus type 1 group M subtype B, UniProt P03366). Description: HIV-1 RT-associated RNase H inhibition assay. The class given is biochemical. The following applies: for Percentage of residual enzymatic activity at the highest concentration tested: HIV-1 RNase H; for IC50 HIV-1 RNase H / IC50: concentration required to reduce HIV-1 RT-associated RNase H activity by 50%, mean of three independent experiments ± SD.

The test system of data set [2] is SARS-CoV-2 WA1/2020 strain. The format is cell-based.
The next data set deals with SARS-CoV-2 WA1/2020. Kind of data set: Plaque reduction assay in Vero E6 ACE2 cells. The class given is cell-based. Conditions: for EC50 fold higher compared to 1c: plaque reduction assay.
Data set [3] deals with SARS-CoV-2 nsp14/nsp10 ExoN (Severe acute respiratory syndrome coronavirus 2, UniProt P0DTD1). Description: SARS-CoV-2 nsp14 exonuclease (ExoN) activity assay, HPLC, RNA22 substrate. The class given is biochemical. The following applies: for inhibition at 100 µM: read-out: Inhibition of ExoN activity.
In data set [4] the target is full-length SARS-CoV-2 nsp14 MTase (Severe acute respiratory syndrome coronavirus 2, UniProt P0DTD1). Kind of data set: SARS-CoV-2 nsp14 N7-methyltransferase activity assay. The format is biochemical. Conditions: absence vs presence of inhibitor; GpppA substrate, [3H]-SAM.

Regarding `CC(=O)Nc1ccc(/C=N/NC(=O)c2cc3ccccc3cc2O)cc1` [1j], in data set [1], the “Percentage of residual enzymatic activity at the highest concentration tested” value turned out to be 91% and the “IC50 HIV-1 RNase H” value is “inactive”. Also, the half-inhibitory concentration (IC50) in data set [1] (read-out: IC50 HIV-1 RNase H) was over 100 µM.

For `CN(C)c1ccc(/C=N/NC(=O)c2cc3ccccc3cc2O)cc1` [1i], in data set [1] (read-out: IC50 HIV-1 RNase H), the IC50 stood at 27.5 ± 2.65 µM.

Take `CCN(CC)c1ccc(/C=N/NC(=O)c2cc3ccccc3cc2O)cc1` [1k]: the IC50 in data set [1] (read-out: IC50 HIV-1 RNase H) was 7 to 8 µM and 7.94 µM.

In the case of `CCOC(=O)C(=O)CC(=O)/C=C/c1cccn1Cc1ccc(F)cc1` [RDS1643, reference compound], in data set [1] (read-out: IC50 HIV-1 RNase H), the half-inhibitory concentration (IC50) turned out to be 10.8 ± 5.2 µM.

Take `O=C(N/N=C/c1ccc(O)c(O)c1O)c1cc2ccccc2cc1O` [1f]: in data set [1] (read-out: IC50 HIV-1 RNase H), the IC50 came to 0.93 ± 0.24 µM.

Take `O=C(N/N=C/c1cc(O)c(O)c([N+](=O)[O-])c1)c1cc2ccccc2cc1O` [1c, (E)-N′-(3,4-Dihydroxy-5-nitrobenzylidene)-3-hydroxy-2-naphthohydrazide]: the “Effect on virus titers” value in data set [2] (12.5 µM, A549 ACE2+ cells, MOI 0.05) was “no measurable effect”. The “Reduction in virus titers” value in data set [2] (25 µM, 24 h post-infection) was 6.4 fold; in data set [2] (25 µM, 48 h post-infection), 7.8 fold; in data set [2] (50 µM, 24 h post-infection), 78.5 fold; in data set [2] (50 µM, 48 h post-infection), 48.9 fold. In the data set on SARS-CoV-2 WA1/2020 (concentration required to reduce plaque number by 50%, 3 d, mean and SD of three independent experiments, read-out: EC50 anti-SARS-CoV-2 activity by plaque reduction assay), the EC50 was found to be 10.23 ± 0.01 µM. The IC50 stood at 2.2 µM in data set [3] (RNA22 substrate, HPLC) and 0.57 ± 0.04 µM in data set [1] (IC50 HIV-1 RNase H). Besides, in data set [3] (at 100 µM), the “Inhibition of ExoN activity” value is “complete inhibition”. Besides, the “Effect on nsp14 MTase activity (tritium incorporation)” value in data set [4] is given as “no significant differences”.

`O=C(N/N=C/c1cc(O)c(O)c([N+](=O)[O-])c1)c1ccccc1O` [2a, (E)-N′-(3,4-Dihydroxy-5-nitrobenzylidene)-2-hydroxybenzohydrazide]: the melting point is 275 °C (dec.). Moreover, in the data set with SARS-CoV-2 WA1/2020, the “EC50 fold higher compared to 1c” value was 4.3 fold. Further, the inhibition at 100 µM in data set [3] is about 65%. The same molecule gave a half-maximal inhibitory concentration (IC50) in data set [1] (IC50 HIV-1 RNase H) of 14 ± 0.97 µM.

For `COc1cc(/C=N/NC(=O)c2cc3ccccc3cc2O)cc([N+](=O)[O-])c1O` [1b, (E)-N′-(4-Hydroxy-5-methoxy-3-nitrobenzylidene)-3-hydroxy-2-naphthohydrazide], the IC50 in data set [1] (read-out: IC50 HIV-1 RNase H) is 7 to 8 µM and 7.16 µM.

For `COc1ccc(/C=N/NC(=O)c2cc3ccccc3cc2O)cc1O` [1g], the “Percentage of residual enzymatic activity at the highest concentration tested” value in data set [1] is 84%. Besides, in data set [1] (read-out: IC50 HIV-1 RNase H), the IC50 was over 100 µM.

For the molecule `O=C(N/N=C/c1cc(O)ccc1O)c1cc2ccccc2cc1O` [1d], the IC50 in data set [1] (read-out: IC50 HIV-1 RNase H) came to 35.9 ± 8.6 µM.

Regarding `O=C(N/N=C/c1ccc(O)c(O)c1)c1cc2ccccc2cc1O` [Dynasore, (E)-N′-(3,4-dihydroxybenzylidene)-3-hydroxy-2-naphthohydrazide, reference compound], in data set [1] (read-out: IC50 HIV-1 RNase H), the IC50 was 3.1 ± 0.52 µM.

`O=C(N/N=C/c1ccc(O)c([N+](=O)[O-])c1)c1cc2ccccc2cc1O` [1a, (E)-N’-(4-Hydroxy-3-nitrobenzylidene)-3-hydroxy-2-naphthohydrazide]: the IC50 in data set [1] (read-out: IC50 HIV-1 RNase H) amounted to 69.6 ± 8.46 µM.

On to `O=C(N/N=C/c1cc(O)c(O)c([N+](=O)[O-])c1)c1cccnc1` [2c, (E)-N′-(3,4-Dihydroxy-5-nitrobenzylidene)-nicotinoylhydrazide], for which the melting point was 250 to 251 °C (dec.). Besides, in the data set on SARS-CoV-2 WA1/2020 (concentration required to reduce plaque number by 50%, 3 d, mean and SD of three independent experiments), the “EC50 anti-SARS-CoV-2 activity by plaque reduction assay” value is “inactive”. The inhibition at 100 µM in data set [3] is about 37%. Also, in data set [1] (IC50 HIV-1 RNase H), the IC50 was 24.7 ± 3.89 µM.

In turn, `CN1CCN(c2ccc(/C=N/NC(=O)c3cc4ccccc4cc3O)cc2)CC1` [1l, (E)-N’-[4-(N-Methylpiperazinyl)benzylidene]-3-hydroxy-2-naphthohydrazide] yielded a melting point of 256 to 257 °C. Further, in data set [1], the “Percentage of residual enzymatic activity at the highest concentration tested” value turned out to be 70% and the “IC50 HIV-1 RNase H” value is “inactive”. The concentration for half-maximal inhibition (IC50) in data set [1] (read-out: IC50 HIV-1 RNase H) was over 100 µM.

With `O=C(N/N=C/c1ccc(O)cc1O)c1cc2ccccc2cc1O` [1h], the IC50 in data set [1] (read-out: IC50 HIV-1 RNase H) came out at 36.4 ± 10.5 µM.

With `COc1ccc(/C=N/NC(=O)c2cc3ccccc3cc2O)c(O)c1O` [1e, (E)-N’-(2,3-Dihydroxy-4-methoxybenzylidene)-3-hydroxy-2-naphthohydrazide], the IC50 in data set [1] (read-out: IC50 HIV-1 RNase H) is 1.02 ± 0.15 µM.

`O=C(N/N=C/c1cc(O)c(O)c([N+](=O)[O-])c1)c1cccc(F)c1` [2b, (E)-N′-(3,4-Dihydroxy-5-nitrobenzylidene)-3-fluorobenzohydrazide]: the melting point was 251 to 252 °C (dec.). The “EC50 fold higher compared to 1c” value with SARS-CoV-2 WA1/2020 was determined as 3.4 fold. Further, the inhibition at 100 µM in data set [3] was about 53%. In data set [1] (IC50 HIV-1 RNase H), this molecule came in with an IC50 of 15.2 ± 1.35 µM.

The values are drawn from article PMC10385162 (Viruses, 2023).
